Data published in paper PMC6709486, “Safety, Tolerability, Pharmacokinetics, and Drug Interaction Potential of SPR741, an Intravenous Potentiator, after Single and Multiple Ascending Doses and When Combined with β-Lactam Antibiotics in Healthy Subjects” (Antimicrobial Agents and Chemotherapy, 2019).
Peptide text beside a SMILES is read from it.

Columns and labels:
[1] = parameters: species or system human; settings: in vivo
Text: The SAD/MAD study was a phase 1, double-blind, placebo-controlled, multicohort trial. Part 1 used a SAD design according to which subjects received a single i.v. dose of SPR741. Part 2 used a MAD design in which subjects received multiple daily i.v. doses of SPR741 over a period of 14 days. The objective was to assess the safety/tolerability and PK of single and multiple ascending doses of SPR741. In the SAD phase, healthy volunteers were screened within 28 days prior to dosing. Subjects were admitted to the clinical facility on day −1 for up to 3 days. A single dose of SPR741 (or placebo) was administered on day 1. Following completion of all safety assessments and sampling for PK analyses, subjects were discharged on day 2. A follow-up visit occurred 5 to 7 days after day 1 dosing. In the MAD phase, all subjects were admitted to the clinical facility on day −1. Dosing commenced on the morning of day 1. Three doses were administered daily at approximately 8 (±0.5)-h intervals for a total of 14 consecutive days. The last dose was administered on the morning of day 14. Blood and urine samples were collected for assessment of PK parameters. Subjects were discharged on day 16 following completion of all PK sample collection and safety assessments, and a follow-up visit occurred 5 to 7 days after the last dose. In the SAD phase, subjects were randomized to one of eight cohorts that received doses of 5, 15, 50, 100, 200, 400, 600 or 800 mg of SPR741. Within each cohort, two subjects received placebo, and six received SPR741. In cohort 1, two subjects (sentinels) were dosed with SPR741 or placebo 48 h prior to dosing of the remaining subjects. The remaining six subjects were dosed only after no safety concerns were identified in the sentinel subjects. After each dose cohort had completed administration of study drug and evaluation, a Safety Monitoring Group reviewed blinded cumulative safety data (including day 5 to day 7 follow-up data) to confirm the safety and tolerability of SPR741. For both studies, safety assessments included clinical laboratory testing (hematology, coagulation, serum chemistry, renal chemistry, and urinalysis), vital signs (blood pressure, heart rate, body temperature, and respiratory rate), physical examination, and triplicate 12-lead ECGs. […] Adverse events were recorded at each study visit.

[2] = MAD phase safety and tolerability; assay type: in vivo, human
Text: The SAD/MAD study was a phase 1, double-blind, placebo-controlled, multicohort trial. Part 1 used a SAD design according to which subjects received a single i.v. dose of SPR741. Part 2 used a MAD design in which subjects received multiple daily i.v. doses of SPR741 over a period of 14 days. The objective was to assess the safety/tolerability and PK of single and multiple ascending doses of SPR741.
In the SAD phase, healthy volunteers were screened within 28 days prior to dosing. Subjects were admitted to the clinical facility on day −1 for up to 3 days. A single dose of SPR741 (or placebo) was administered on day 1. Following completion of all safety assessments and sampling for PK analyses, subjects were discharged on day 2. A follow-up visit occurred 5 to 7 days after day 1 dosing. In the MAD phase, all subjects were admitted to the clinical facility on day −1. Dosing commenced on the morning of day 1. Three doses were administered daily at approximately 8 (±0.5)-h intervals for a total of 14 consecutive days. The last dose was administered on the morning of day 14. Blood and urine samples were collected for assessment of PK parameters. Subjects were discharged on day 16 following completion of all PK sample collection and safety assessments, and a follow-up visit occurred 5 to 7 days after the last dose.
The MAD phase of the study began after safety and tolerability were confirmed in cohort 5, and the appropriate dose level was established. Two subjects received placebo, and six subjects received SPR741 doses of 50, 150, 400 or 600 mg q8h for 14 days. In the first cohort of the MAD phase (50 mg q8h), two subjects (sentinels) began dosing with SPR741 or placebo 72 h prior to dosing of the remaining subjects in this cohort. The remaining six subjects were dosed only after no safety concerns were identified by the Safety Monitoring Group at 72 h. After each MAD dose cohort had completed administration of study drug and all evaluations, the Safety Monitoring Group reviewed blinded cumulative safety data (including the day 19 to 21 follow-up data) to confirm the safety and tolerability of study drug.
For both studies, safety assessments included clinical laboratory testing (hematology, coagulation, serum chemistry, renal chemistry, and urinalysis), vital signs (blood pressure, heart rate, body temperature, and respiratory rate), physical examination, and triplicate 12-lead ECGs. […] Adverse events were recorded at each study visit.

Question: For `CC(=O)N[C@H](C(=O)N[C@H](CO)C(=O)N[C@H]1CCNC(=O)[C@H]([C@@H](C)O)NC(=O)[C@H](CCN)NC(=O)[C@H](CCN)NC(=O)[C@H](CC(C)C)NC(=O)[C@@H](Cc2ccccc2)NC(=O)[C@H](CCN)NC1=O)[C@@H](C)O` [SPR741] (HELM PEPTIDE1{[ac].T.[dS].[Dab].[Dab].[dF].L.[Dab].[Dab].T}$PEPTIDE1,PEPTIDE1,4:R3-10:R2$$$V2.0), which “TEAE classified as a renal or urinary disorder” value [1] is on record?
Answer: No subjects

Question: And the “abnormal serum creatinine value” [1]?
Answer: no subject

Question: What about the “headache: No. (%) of subjects” value [1] of the same compound?
Answer: 4 (8%)

Question: And the “severe TEAE or serious adverse event” value [1]?
Answer: No subject

Question: And the “deaths or severe TEAEs” value ([2]; MAD)?
Answer: No deaths or severe TEAEs occurred

Question: What about the “Abdominal pain: No. (%) of subjects” value ([2]; in vivo) of the same compound?
Answer: 2 (8)

Question: What about the “Abdominal pain: No. of events” value ([2]; in vivo) of the same compound?
Answer: 2

Question: And the “All systemic TEAEs: No. (%) of subjects” value ([2]; in vivo)?
Answer: 24 (100)

Question: And the “All systemic TEAEs: No. of events” value ([2]; in vivo)?
Answer: 178

Question: What about the “Arthralgia: No. (%) of subjects” value ([2]; in vivo) of the same compound?
Answer: 2 (8)

Question: And the “Arthralgia: No. of events” value ([2]; in vivo)?
Answer: 3

Question: What about the “Back pain: No. (%) of subjects” value ([2]; in vivo) of the same compound?
Answer: 2 (8)

Question: What about the “Back pain: No. of events” value ([2]; in vivo) of the same compound?
Answer: 2

Question: What about the “Chest discomfort: No. (%) of subjects” value ([2]; in vivo) of the same compound?
Answer: 2 (8)

Question: And the “Chest discomfort: No. of events” value ([2]; in vivo)?
Answer: 2

Question: And the “Contusion: No. (%) of subjects” value ([2]; in vivo)?
Answer: 2 (8)

Question: What about the “Contusion: No. of events” value ([2]; in vivo) of the same compound?
Answer: 2

Question: What about the “CrCl on day 16” value ([2]; in vivo) of the same compound?
Answer: 65 mL/min

Question: And the “Creatinine clearance decrease: No. of events” value ([2]; in vivo)?
Answer: 6

Question: What about the “Dermatitis contact: No. of events” value ([2]; in vivo) of the same compound?
Answer: 7

Question: And the “Diarrhea: No. of events” value ([2]; in vivo)?
Answer: 3

Question: And the “Dysesthesia: No. (%) of subjects” value ([2]; in vivo)?
Answer: 2 (8)

Question: And the “Dysesthesia: No. of events” value ([2]; in vivo)?
Answer: 2

Question: And the “Headache: No. of events” value ([2]; in vivo)?
Answer: 8

Question: What about the “Nausea: No. (%) of subjects” value ([2]; in vivo) of the same compound?
Answer: 2 (8)

Question: And the “Nausea: No. of events” value ([2]; in vivo)?
Answer: 2

Question: What about the “Rhinitis: No. (%) of subjects” value ([2]; in vivo) of the same compound?
Answer: 2 (8)

Question: And the “Rhinitis: No. of events” value ([2]; in vivo)?
Answer: 2

Question: And the “catheter site erythema related to the PK cannula” value ([2]; in vivo)?
Answer: 13%

Question: And the “catheter site pain related to the PK cannula” value ([2]; in vivo)?
Answer: 25%

Question: And the “decline in CrCl” value ([2]; in vivo)?
Answer: 50%

Question: What about the “infusion site phlebitis, SPR741 subjects” value ([2]; in vivo) of the same compound?
Answer: 3

Question: What about the “infusion site thrombosis, SPR741 subjects” value ([2]; in vivo) of the same compound?
Answer: 2

Question: What about the “serious AE of atrial fibrillation, probably related to treatment, withdrawn” value ([2]; in vivo) of the same compound?
Answer: One subject

Question: And the “infusion site reactions (site bruising, erythema, pain, phlebitis, swelling), total number” value ([2]; in vivo, iv)?
Answer: 81
